Data reported in PubChem BioAssay AID2060336 (Molecular Pharmacology Branch, DTP, NCI, 2025).
“And” between values parts separate entries of the source, which are not always exact repeats. Equal values may be shown once.

Tested on: 958767-090-R-J1-PDC spheroid growth
Test: Anticancer human tumor 958767-090-R-J1-PDC patient-derived head and neck squamous carcinoma cell line growth inhibition [IpAb]
Conditions: spheroids with HUVEC and MSC; for viability, T/C: stronger effect = lower value; active means viability on the fitted dose curve at most 10% of control; inactive means the rest
In short: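 Spheroids of 60% malignant cells, 25% HUVEC and 15% MSC were exposed to targeted agents combined with ipatasertib or abemaciclib. Doses started at or near clinical Cmax (10 microM when unknown) and fell in half-log steps.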

[1] = curve of first compound, second compound 0.01 µM
[2] = curve of first compound, second compound 0.0316 µM
[3] = curve of first compound, second compound 0.1 µM
[4] = curve of first compound, second compound 0.316 µM
[5] = curve of first compound, second compound 1 µM
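Further: spheroids exposed to agents for 7 days.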
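Wherever viability, T/C is given: 100% = DMSO vehicle control wells.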

CCCS(=O)(=O)Nc1ccc(F)c(C(=O)c2c[nH]c3ncc(-c4ccc(Cl)cc4)cc23)c1F
inactive: viability, T/C (compound 0.0316 µM) 86.3% and 103% | viability, T/C (compound 0.1 µM) 93.5% and 92.7% | viability, T/C (compound 0.316 µM) 92.7% and 98.5% | viability, T/C (compound 1 µM) 94.9% and 96% | viability, T/C (compound 3.16 µM) 98.5% and 96.4% | viability, T/C (compound 10 µM) 65.5% and 66.7%
> 10 µM: IC50 (curve of compound)

Cn1cnc2c(F)c(Nc3ccc(Br)cc3Cl)c(C(=O)NOCCO)cc21 + CCN1CCN(Cc2ccc(Nc3ncc(F)c(-c4cc(F)c5nc(C)n(C(C)C)c5c4)n3)nc2)CC1
0.00964 µM: IC50 [4]
inactive: viability, T/C (second compound 0.01 µM, first compound 0.00949 µM) 71% | viability, T/C (second compound 0.01 µM, first compound 0.03 µM) 49.4% | viability, T/C (second compound 0.01 µM, first compound 0.0949 µM) 35.2% | viability, T/C (second compound 0.01 µM, first compound 0.3 µM) 34.5% | viability, T/C (second compound 0.01 µM, first compound 0.949 µM) 30% | viability, T/C (second compound 0.01 µM, first compound 3 µM) 23.2% | viability, T/C (second compound 0.0316 µM, first compound 0.00949 µM) 65% | viability, T/C (second compound 0.0316 µM, first compound 0.03 µM) 47.7% | viability, T/C (second compound 0.0316 µM, first compound 0.0949 µM) 36.9% | viability, T/C (second compound 0.0316 µM, first compound 0.3 µM) 29.7% | viability, T/C (second compound 0.0316 µM, first compound 0.949 µM) 29.3% | viability, T/C (second compound 0.0316 µM, first compound 3 µM) 19.7% | viability, T/C (second compound 0.1 µM, first compound 0.00949 µM) 53.1% | viability, T/C (second compound 0.1 µM, first compound 0.03 µM) 41.9% | viability, T/C (second compound 0.1 µM, first compound 0.0949 µM) 34.9% | viability, T/C (second compound 0.1 µM, first compound 0.3 µM) 34.1% | viability, T/C (second compound 0.1 µM, first compound 0.949 µM) 26.7% | viability, T/C (second compound 0.1 µM, first compound 3 µM) 23.5% | viability, T/C (second compound 0.316 µM, first compound 0.00949 µM) 51.9% | viability, T/C (second compound 0.316 µM, first compound 0.03 µM) 41.9% | viability, T/C (second compound 0.316 µM, first compound 0.0949 µM) 40.1% | viability, T/C (second compound 0.316 µM, first compound 0.3 µM) 36.1% | viability, T/C (second compound 0.316 µM, first compound 0.949 µM) 28% | viability, T/C (second compound 0.316 µM, first compound 3 µM) 21.2% | viability, T/C (second compound 1 µM, first compound 0.00949 µM) 69.3% | viability, T/C (second compound 1 µM, first compound 0.03 µM) 67.2% | viability, T/C (second compound 1 µM, first compound 0.0949 µM) 51.9% | viability, T/C (second compound 1 µM, first compound 0.3 µM) 42.8% | viability, T/C (second compound 1 µM, first compound 0.949 µM) 44.5% | viability, T/C (second compound 1 µM, first compound 3 µM) 37%
0.124 µM: IC50 [5]
0.0293 µM: IC50 [1]
0.027 µM: IC50 [2]
0.0126 µM: IC50 [3]

C=CC(=O)N1CCN(c2nc(=O)n(-c3c(C)ccnc3C(C)C)c3nc(-c4c(O)cccc4F)c(F)cc23)C(C)C1 (stereo unspecified) + CCN1CCN(Cc2ccc(Nc3ncc(F)c(-c4cc(F)c5nc(C)n(C(C)C)c5c4)n3)nc2)CC1
8.02 µM: IC50 [3]
9.88 µM: IC50 [5]
inactive: viability, T/C (second compound 0.01 µM, first compound 0.0316 µM) 96.3% | viability, T/C (second compound 0.01 µM, first compound 0.1 µM) 84.9% | viability, T/C (second compound 0.01 µM, first compound 0.316 µM) 94.4% | viability, T/C (second compound 0.01 µM, first compound 1 µM) 94.8% | viability, T/C (second compound 0.01 µM, first compound 3.16 µM) 81.9% | viability, T/C (second compound 0.01 µM, first compound 10 µM) 44.3% | viability, T/C (second compound 0.0316 µM, first compound 0.0316 µM) 82.4% | viability, T/C (second compound 0.0316 µM, first compound 0.1 µM) 84.8% | viability, T/C (second compound 0.0316 µM, first compound 0.316 µM) 90.7% | viability, T/C (second compound 0.0316 µM, first compound 1 µM) 92.3% | viability, T/C (second compound 0.0316 µM, first compound 3.16 µM) 83.5% | viability, T/C (second compound 0.0316 µM, first compound 10 µM) 40% | viability, T/C (second compound 0.1 µM, first compound 0.0316 µM) 72.2% | viability, T/C (second compound 0.1 µM, first compound 0.1 µM) 70.2% | viability, T/C (second compound 0.1 µM, first compound 0.316 µM) 75.1% | viability, T/C (second compound 0.1 µM, first compound 1 µM) 94.2% | viability, T/C (second compound 0.1 µM, first compound 3.16 µM) 81.4% | viability, T/C (second compound 0.1 µM, first compound 10 µM) 43.3% | viability, T/C (second compound 0.316 µM, first compound 0.0316 µM) 77% | viability, T/C (second compound 0.316 µM, first compound 0.1 µM) 55.1% | viability, T/C (second compound 0.316 µM, first compound 0.316 µM) 72.5% | viability, T/C (second compound 0.316 µM, first compound 1 µM) 94.1% | viability, T/C (second compound 0.316 µM, first compound 3.16 µM) 75.9% | viability, T/C (second compound 0.316 µM, first compound 10 µM) 44.9% | viability, T/C (second compound 1 µM, first compound 0.0316 µM) 89.7% | viability, T/C (second compound 1 µM, first compound 0.1 µM) 82.4% | viability, T/C (second compound 1 µM, first compound 0.316 µM) 94.6% | viability, T/C (second compound 1 µM, first compound 1 µM) 96.1% | viability, T/C (second compound 1 µM, first compound 3.16 µM) 87.7% | viability, T/C (second compound 1 µM, first compound 10 µM) 49.5%
8.41 µM: IC50 [1]
7.73 µM: IC50 [2]
8.18 µM: IC50 [4]

Cc1nc(NC(=O)N2CCCC2C(N)=O)sc1-c1ccnc(C(C)(C)C(F)(F)F)c1 (stereo unspecified)
0.304 µM and 0.311 µM: IC50 (curve of compound)
inactive: viability, T/C (compound 0.0316 µM) 85.3% and 75% | viability, T/C (compound 0.1 µM) 68.5% and 71.4% | viability, T/C (compound 0.316 µM) 48.5% and 42.7% | viability, T/C (compound 1 µM) 32.3% and 36.4% | viability, T/C (compound 3.16 µM) 22.2% and 22.6% | viability, T/C (compound 10 µM) 9.48% and 9.72%

CC(C)(C)c1cnc(CSc2cnc(NC(=O)C3CCNCC3)s2)o1
active: viability, T/C (compound 0.3 µM) 6.79% and 3.17% | viability, T/C (compound 0.949 µM) 2.83% and 2.21% | viability, T/C (compound 3 µM) 2.61% and 2.81%
inactive: viability, T/C (compound 0.00949 µM) 106% and 118% | viability, T/C (compound 0.03 µM) 97% and 116% | viability, T/C (compound 0.0949 µM) 85.4% and 100%
0.159 µM and 0.172 µM: IC50 (curve of compound)
